Test results taken from US9980943B2, “Methods of treating muscular dystrophy” (BOARD OF REGENTS OF THE NEVADA SYSTEM OF HIGHER EDUCATION, …, priority 2013, dated 2018).

Columns and labels:
Type in all cases: cell-based, mouse
[1] = tested on: α7 integrin (LacZ reporter in α7βgal+/− myoblasts); test: Myoblast α7+/LacZ integrin FDG assay (Burkin assay in myoblasts, 96-well); settings: 96-well; for Burkin Assay in Myoblasts, signal relative to DMSO: α7+/LacZ myoblasts; for Burkin Assay in Myoblasts, value relative to DMSO: SU9516 analogs, N=3-6
[2] = tested on: α7 integrin (LacZ reporter in α7+/LacZ myotubes); test: Myotube α7 integrin FDG assay (Burkin assay in myotubes, 96-well); settings: for Burkin Assay in Myotubes, value relative to DMSO: SU9516 analogs, 96-well, N=3-6
[3] = tested on: β-galactosidase in CMV-LacZ C2C12 myoblasts; test: CMV-LacZ secondary screen in C2C12 myoblasts (β-Gal stabilizing assay); settings: for CMV-LACZ in Myoblasts (β-galactosidase activity relative to DMSO): CMV-LacZ C2C12 myoblasts; for CMV-LACZ in Myoblasts, value relative to DMSO: SU9516 analogs, C2C12 CMV-LacZ, N=2
Procedure, shortened: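 β-gal stabilization was measured in C2C12 myoblasts or myotubes stably transfected with a CMV-driven LacZ construct, using the FDG β-gal assay. Compounds were tested in dose-response at 0.5, 1, 5, 10, 20 and 40 μM, with two replicates per point.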

[4] = tested on: β-galactosidase in CMV-LacZ C2C12 myotubes; test: CMV-LacZ secondary screen in C2C12 myotubes (β-Gal stabilizing assay); settings: for CMV-LACZ in Myotubes, signal relative to DMSO: C2C12 CMV-LacZ myotubes, fold relative to DMSO; for CMV-LACZ in Myotubes, value relative to DMSO: SU9516 analogs, C2C12 CMV-LacZ, N=2
Procedure, shortened: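 Dose-response runs at 0.5–40 μM (0.5, 1, 5, 10, 20, 40 μM; N=2 per point) used a clonal C2C12 line carrying CMV-LacZ. Cells were assayed as myoblasts or as differentiated myotubes, and β-galactosidase levels were read with the FDG fluorogenic substrate.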

## Cc1ccc(C(=O)N2CCN(S(=O)(=O)N3CCOCC3)CC2)cc1 [MLS000663185-01]
[1]; 0.5 uM
  Burkin Assay in Myoblasts, signal relative to DMSO: 1.109
[1]; 1 uM
  Burkin Assay in Myoblasts, signal relative to DMSO: 0.9744
[1]; 5 uM
  Burkin Assay in Myoblasts, signal relative to DMSO: 1.399
[1]; 10 uM
  Burkin Assay in Myoblasts, signal relative to DMSO: 0.9312
[1]; 20 uM
  Burkin Assay in Myoblasts, signal relative to DMSO: 0.9222
[1]; 40 uM
  Burkin Assay in Myoblasts, signal relative to DMSO: 0.8328
[2]; 0.5 uM
  Burkin Assay in Myotubes, α7 integrin LacZ reporter signal relative to DMSO: 0.968
[2]; 1 uM
  Burkin Assay in Myotubes, α7 integrin LacZ reporter signal relative to DMSO: 0.8137
[2]; 5 uM
  Burkin Assay in Myotubes, α7 integrin LacZ reporter signal relative to DMSO: 0.9767
[2]; 10 uM
  Burkin Assay in Myotubes, α7 integrin LacZ reporter signal relative to DMSO: 1.0708
[2]; 20 uM
  Burkin Assay in Myotubes, α7 integrin LacZ reporter signal relative to DMSO: 0.7791
[2]; 40 uM
  Burkin Assay in Myotubes, α7 integrin LacZ reporter signal relative to DMSO: 1.118
[3]; 0.5 uM
  CMV-LACZ in Myoblasts (β-galactosidase activity relative to DMSO): 1.1390
[3]; 1 uM
  CMV-LACZ in Myoblasts (β-galactosidase activity relative to DMSO): 1.1477
[3]; 5 uM
  CMV-LACZ in Myoblasts (β-galactosidase activity relative to DMSO): 0.9688
[3]; 10 uM
  CMV-LACZ in Myoblasts (β-galactosidase activity relative to DMSO): 0.8567
[3]; 20 uM
  CMV-LACZ in Myoblasts (β-galactosidase activity relative to DMSO): 0.9211
[3]; 40 uM
  CMV-LACZ in Myoblasts (β-galactosidase activity relative to DMSO): 0.9347
[4]; 0.5 uM
  CMV-LACZ in Myotubes, signal relative to DMSO: 1.0924
[4]; 1 uM
  CMV-LACZ in Myotubes, signal relative to DMSO: 0.9800
[4]; 5 uM
  CMV-LACZ in Myotubes, signal relative to DMSO: 0.9322
[4]; 10 uM
  CMV-LACZ in Myotubes, signal relative to DMSO: 0.8722
[4]; 20 uM
  CMV-LACZ in Myotubes, signal relative to DMSO: 0.9540
[4]; 40 uM
  CMV-LACZ in Myotubes, signal relative to DMSO: 1.1270

## NC(=O)COc1ccc(C(=O)/C=C2/C(=O)Nc3ccccc32)cc1 [MLS001214300-01]
[1]; 0.5 uM
  Burkin Assay in Myoblasts, value relative to DMSO: 1.211
[1]; 1 uM
  Burkin Assay in Myoblasts, value relative to DMSO: 0.9366
[1]; 5 uM
  Burkin Assay in Myoblasts, value relative to DMSO: 0.8041
[1]; 10 uM
  Burkin Assay in Myoblasts, value relative to DMSO: 0.353
[1]; 20 uM
  Burkin Assay in Myoblasts, value relative to DMSO: 0.1847
[1]; 40 uM
  Burkin Assay in Myoblasts, value relative to DMSO: 0.02593
[2]; 0.5 uM
  Burkin Assay in Myotubes, value relative to DMSO: 1.019
[2]; 1 uM
  Burkin Assay in Myotubes, value relative to DMSO: 1.039
[2]; 5 uM
  Burkin Assay in Myotubes, value relative to DMSO: 1.091
[2]; 10 uM
  Burkin Assay in Myotubes, value relative to DMSO: 0.8733
[2]; 20 uM
  Burkin Assay in Myotubes, value relative to DMSO: 0.7447
[2]; 40 uM
  Burkin Assay in Myotubes, value relative to DMSO: 0.3178
[3]; 0.5 uM
  CMV-LACZ in Myoblasts, value relative to DMSO: 1.0446
[3]; 1 uM
  CMV-LACZ in Myoblasts, value relative to DMSO: 0.9403
[3]; 5 uM
  CMV-LACZ in Myoblasts, value relative to DMSO: 0.7949
[3]; 10 uM
  CMV-LACZ in Myoblasts, value relative to DMSO: 1.1047
[3]; 20 uM
  CMV-LACZ in Myoblasts, value relative to DMSO: 0.4007
[3]; 40 uM
  CMV-LACZ in Myoblasts, value relative to DMSO: 0.1793
[4]; 0.5 uM
  CMV-LACZ in Myotubes, value relative to DMSO: 0.9819
[4]; 1 uM
  CMV-LACZ in Myotubes, value relative to DMSO: 0.8924
[4]; 5 uM
  CMV-LACZ in Myotubes, value relative to DMSO: 1.0550
[4]; 10 uM
  CMV-LACZ in Myotubes, value relative to DMSO: 1.0956
[4]; 20 uM
  CMV-LACZ in Myotubes, value relative to DMSO: 6.2635
[4]; 40 uM
  CMV-LACZ in Myotubes, value relative to DMSO: 0.7118

## COc1cc([N+](=O)[O-])cc(/C=N/NC(=O)C(O)(c2ccccc2)c2ccccc2)c1O [MLS001183575-01]
[1]; 0.5 uM
  Burkin Assay in Myoblasts, signal relative to DMSO: 0.9644
[1]; 1 uM
  Burkin Assay in Myoblasts, signal relative to DMSO: 1.009
[1]; 5 uM
  Burkin Assay in Myoblasts, signal relative to DMSO: 0.8981
[1]; 10 uM
  Burkin Assay in Myoblasts, signal relative to DMSO: 0.7946
[1]; 20 uM
  Burkin Assay in Myoblasts, signal relative to DMSO: 0.6916
[1]; 40 uM
  Burkin Assay in Myoblasts, signal relative to DMSO: 0.5338
[2]; 0.5 uM
  Burkin Assay in Myotubes, α7 integrin LacZ reporter signal relative to DMSO: 1.0887
[2]; 1 uM
  Burkin Assay in Myotubes, α7 integrin LacZ reporter signal relative to DMSO: 0.9681
[2]; 5 uM
  Burkin Assay in Myotubes, α7 integrin LacZ reporter signal relative to DMSO: 0.8172
[2]; 10 uM
  Burkin Assay in Myotubes, α7 integrin LacZ reporter signal relative to DMSO: 0.7938
[2]; 20 uM
  Burkin Assay in Myotubes, α7 integrin LacZ reporter signal relative to DMSO: 0.7378
[2]; 40 uM
  Burkin Assay in Myotubes, α7 integrin LacZ reporter signal relative to DMSO: 0.6868
[3]; 0.5 uM
  CMV-LACZ in Myoblasts (β-galactosidase activity relative to DMSO): 1.1603
[3]; 1 uM
  CMV-LACZ in Myoblasts (β-galactosidase activity relative to DMSO): 1.2440
[3]; 5 uM
  CMV-LACZ in Myoblasts (β-galactosidase activity relative to DMSO): 0.8972
[3]; 10 uM
  CMV-LACZ in Myoblasts (β-galactosidase activity relative to DMSO): 0.7762
[3]; 20 uM
  CMV-LACZ in Myoblasts (β-galactosidase activity relative to DMSO): 1.2825
[3]; 40 uM
  CMV-LACZ in Myoblasts (β-galactosidase activity relative to DMSO): 0.8856
[4]; 0.5 uM
  CMV-LACZ in Myotubes, signal relative to DMSO: 0.9648
[4]; 1 uM
  CMV-LACZ in Myotubes, signal relative to DMSO: 0.8657
[4]; 5 uM
  CMV-LACZ in Myotubes, signal relative to DMSO: 0.7726
[4]; 10 uM
  CMV-LACZ in Myotubes, signal relative to DMSO: 0.9136
[4]; 20 uM
  CMV-LACZ in Myotubes, signal relative to DMSO: 0.8230
[4]; 40 uM
  CMV-LACZ in Myotubes, signal relative to DMSO: 1.1230
